According to ChEMBL document CHEMBL1201862, “PubChem BioAssay data set” (2004):
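Cells were grown in 96-well plates and exposed to each compound for 48 hours at five concentrations; endpoints were interpolated linearly between bracketing concentrations, or set to the highest concentration if not reached. Here, GI50 denotes the concentration required for 50% inhibition of growth.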 Calls of active or inactive are those of the source. Cut-off read from the data, not from the text of the source: active = GI50 up to about 1.1 µM and inactive = higher.

Assays:
Experiment in all cases: NCI tumour cell line growth inhibition, 48 h
HL-60 = tested on: HL-60
NCI/ADR-RES = tested on: NCI/ADR-RES
EKVX = tested on: EKVX
SR = tested on: SR
CAKI-1 = tested on: CAKI-1
OVCAR-4 = tested on: OVCAR-4
RXF 393 = tested on: RXF 393
A549 = tested on: A549
LOX IMVI = tested on: LOX IMVI
SK-MEL-28 = tested on: SK-MEL-28
MDA-N = tested on: MDA-N
NCI-H23 = tested on: NCI-H23
SF-539 = tested on: SF-539
SF-295 = tested on: SF-295
HOP-18 = tested on: HOP-18
UACC-257 = tested on: UACC-257
K562 = tested on: K562
Hs-578T = tested on: Hs-578T
NCI-H522 = tested on: NCI-H522
PC-3 = tested on: PC-3

SMILES | GI50 (HL-60) | GI50 (NCI/ADR-RES) | GI50 (EKVX) | GI50 (SR) | GI50 (CAKI-1) | GI50 (OVCAR-4) | GI50 (RXF 393) | GI50 (A549) | GI50 (LOX IMVI) | GI50 (SK-MEL-28) | GI50 (MDA-N) | GI50 (NCI-H23) | GI50 (SF-539) | GI50 (SF-295) | GI50 (HOP-18) | GI50 (UACC-257) | GI50 (K562) | GI50 (Hs-578T) | GI50 (NCI-H522) | GI50 (PC-3)
O=C1/C(=C/c2ccccc2)CN(C(=O)CCN2CCOCC2)C/C1=C\c1ccccc1 | 1.32 µM (inactive) | 3.16 µM (inactive) | 13.6 µM (inactive) | 1.06 µM (active) | 10.1 µM (inactive) | 2.94 µM (inactive) | 4.38 µM (inactive) | 7.16 µM (inactive) | 0.897 µM (active) | 1.86 µM (inactive) | 2.06 µM (inactive) | 2.55 µM (inactive) | 2.06 µM (inactive) | 2.42 µM (inactive) | 16.7 µM (inactive) | 2.13 µM (inactive) | 0.388 µM (active) | 2.6 µM (inactive) | 2.01 µM (inactive) | 2.75 µM (inactive)
CCOC(=O)C1=C(Nc2ccc(Br)cc2)OCC1=O | 17.9 µM (inactive) | – | > 100 µM (inactive) | > 100 µM (inactive) | > 100 µM (inactive) | > 100 µM (inactive) | > 100 µM (inactive) | > 100 µM (inactive) | – | > 100 µM (inactive) | – | > 100 µM (inactive) | > 100 µM (inactive) | > 100 µM (inactive) | > 100 µM (inactive) | > 100 µM (inactive) | – | – | > 100 µM (inactive) | –
COc1ccc(OC)c(NC(=O)CCC/C(CC(=O)c2ccc(O)c(OC)c2)=N\Nc2ccc([N+](=O)[O-])cc2)c1 | > 100 µM (inactive) | – | 59 µM (inactive) | > 100 µM (inactive) | > 100 µM (inactive) | > 100 µM (inactive) | 19 µM (inactive) | > 100 µM (inactive) | 40.8 µM (inactive) | – | – | 48.1 µM (inactive) | 57.7 µM (inactive) | 52.8 µM (inactive) | > 100 µM (inactive) | > 100 µM (inactive) | 30.1 µM (inactive) | – | 45.9 µM (inactive) | –
NC1=NN(c2ccccc2)C(=O)C1C(=O)C(=O)Nc1nccs1 (centres undefined) | > 100 µM (inactive) | – | > 100 µM (inactive) | > 100 µM (inactive) | > 100 µM (inactive) | > 100 µM (inactive) | > 100 µM (inactive) | > 100 µM (inactive) | > 100 µM (inactive) | > 100 µM (inactive) | – | > 100 µM (inactive) | > 100 µM (inactive) | > 100 µM (inactive) | > 100 µM (inactive) | > 100 µM (inactive) | > 100 µM (inactive) | – | > 100 µM (inactive) | –
O=C(C(=O)N1CC2C=CC1CC2)c1c[nH]c2ccccc12 (centres undefined) | > 100 µM (inactive) | – | – | > 100 µM (inactive) | > 100 µM (inactive) | > 100 µM (inactive) | > 100 µM (inactive) | > 100 µM (inactive) | > 100 µM (inactive) | – | – | – | > 100 µM (inactive) | > 100 µM (inactive) | > 100 µM (inactive) | > 100 µM (inactive) | > 100 µM (inactive) | – | > 100 µM (inactive) | –
CC(=O)NC(CCCCNC(=O)NCCCl)C(=O)NCc1ccccc1 (centres undefined) | > 100 µM (inactive) | – | > 100 µM (inactive) | > 100 µM (inactive) | > 100 µM (inactive) | > 100 µM (inactive) | > 100 µM (inactive) | > 100 µM (inactive) | – | > 100 µM (inactive) | – | > 100 µM (inactive) | > 100 µM (inactive) | > 100 µM (inactive) | > 100 µM (inactive) | > 100 µM (inactive) | > 100 µM (inactive) | – | > 100 µM (inactive) | –
O=C1O/C(=C(\Br)c2cccc3ccccc23)c2ccccc21 | 19.5 µM (inactive) | – | > 42 µM (inactive) | 19.7 µM (inactive) | – | 16.5 µM (inactive) | > 49 µM (inactive) | 20 µM (inactive) | 73.6 µM (inactive) | > 35.1 µM (inactive) | – | > 40 µM (inactive) | 48.1 µM (inactive) | > 38.1 µM (inactive) | 19.5 µM (inactive) | > 40.9 µM (inactive) | 25.2 µM (inactive) | – | 16 µM (inactive) | –
CCN(CC)CCn1ccc(=O)c2cc3c(=O)ccn(CCN(CC)CC)c3c(C)c21 | 1.42 µM (inactive) | 1.41 µM (inactive) | 5.77 µM (inactive) | 1.26 µM (inactive) | 7.4 µM (inactive) | 2.02 µM (inactive) | 4.56 µM (inactive) | 4.27 µM (inactive) | 2.84 µM (inactive) | 19.9 µM (inactive) | 5.57 µM (inactive) | 6.75 µM (inactive) | 11.2 µM (inactive) | 4.47 µM (inactive) | 6.82 µM (inactive) | 16.7 µM (inactive) | 2.77 µM (inactive) | 4.03 µM (inactive) | 6.37 µM (inactive) | 4.79 µM (inactive)
Nc1ncnc2c1sc(=S)n2-c1ccccc1 | > 100 µM (inactive) | – | > 100 µM (inactive) | > 100 µM (inactive) | > 100 µM (inactive) | > 100 µM (inactive) | > 100 µM (inactive) | > 100 µM (inactive) | > 100 µM (inactive) | > 100 µM (inactive) | – | > 100 µM (inactive) | > 100 µM (inactive) | > 100 µM (inactive) | > 100 µM (inactive) | > 100 µM (inactive) | > 100 µM (inactive) | – | > 100 µM (inactive) | –
CCOP(=O)(C/C(O)=C1\C(=O)C(CCCNC(=O)OC(C)(C)C)N(Cc2ccc(OC)c(OC)c2)C1=O)OCC (centres undefined) | > 100 µM (inactive) | – | > 100 µM (inactive) | > 100 µM (inactive) | – | > 100 µM (inactive) | > 100 µM (inactive) | > 100 µM (inactive) | > 100 µM (inactive) | > 100 µM (inactive) | – | > 100 µM (inactive) | > 100 µM (inactive) | > 100 µM (inactive) | > 100 µM (inactive) | > 100 µM (inactive) | > 100 µM (inactive) | – | 2.59 µM (inactive) | –
C=C(CN(C)C)C(=O)c1ccccc1[N+](=O)[O-] | 2.79 µM (inactive) | 19.2 µM (inactive) | > 43.5 µM (inactive) | 3.38 µM (inactive) | 14.2 µM (inactive) | 16.9 µM (inactive) | 16.1 µM (inactive) | > 57.8 µM (inactive) | 7.94 µM (inactive) | 17.6 µM (inactive) | 14.5 µM (inactive) | 16.9 µM (inactive) | 39.7 µM (inactive) | 32.8 µM (inactive) | 18.7 µM (inactive) | 15.8 µM (inactive) | 3.39 µM (inactive) | 22.9 µM (inactive) | 3.56 µM (inactive) | 17.4 µM (inactive)
